Measurements: ChEMBL document CHEMBL1201862, “PubChem BioAssay data set” (2004)
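How tested: cells in 96-well plates exposed to compound for 48 hours at five concentrations. GI50 is the concentration that inhibits growth by half.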 Calls of active or inactive are those of the source. Cut-off read from the data, not from the text of the source: active = GI50 up to about 1.1 µM and inactive = higher.

How the values were obtained:
Experiment in all cases: NCI tumour cell line growth inhibition, 48 h
IGROV-1 = test system: IGROV-1
HCC 2998 = test system: HCC 2998
SK-MEL-28 = test system: SK-MEL-28
A498 = test system: A498
LOX IMVI = test system: LOX IMVI
SK-MEL-2 = test system: SK-MEL-2
NCI-H23 = test system: NCI-H23
SW-620 = test system: SW-620
OVCAR-5 = test system: OVCAR-5
M14 = test system: M14
NCI-H460 = test system: NCI-H460
TK-10 = test system: TK-10
UACC-257 = test system: UACC-257
UACC-62 = test system: UACC-62
OVCAR-3 = test system: OVCAR-3
SF-539 = test system: SF-539
A549 = test system: A549
HCT-116 = test system: HCT-116

SMILES	GI50 (IGROV-1)	GI50 (HCC 2998)	GI50 (SK-MEL-28)	GI50 (A498)	GI50 (LOX IMVI)	GI50 (SK-MEL-2)	GI50 (NCI-H23)	GI50 (SW-620)	GI50 (OVCAR-5)	GI50 (M14)	GI50 (NCI-H460)	GI50 (TK-10)	GI50 (UACC-257)	GI50 (UACC-62)	GI50 (OVCAR-3)	GI50 (SF-539)	GI50 (A549)	GI50 (HCT-116)
O=C(O)CCNS(=O)(=O)c1ccc2ccccc2c1	> 100 µM (inactive)	> 100 µM (inactive)	> 100 µM (inactive)	> 100 µM (inactive)	> 100 µM (inactive)	> 100 µM (inactive)	> 100 µM (inactive)	> 100 µM (inactive)	> 100 µM (inactive)	> 100 µM (inactive)	> 100 µM (inactive)	> 100 µM (inactive)	> 100 µM (inactive)	> 100 µM (inactive)	> 100 µM (inactive)	> 100 µM (inactive)	> 100 µM (inactive)	–
CC(C)(C)OC(=O)NCC(=O)OCc1ccccc1	> 100 µM (inactive)	> 100 µM (inactive)	> 100 µM (inactive)	> 100 µM (inactive)	> 100 µM (inactive)	> 100 µM (inactive)	> 100 µM (inactive)	> 100 µM (inactive)	> 100 µM (inactive)	> 100 µM (inactive)	> 100 µM (inactive)	> 100 µM (inactive)	> 100 µM (inactive)	> 100 µM (inactive)	> 100 µM (inactive)	> 100 µM (inactive)	> 100 µM (inactive)	> 100 µM (inactive)
c1nc2cscc2c2cscc12	> 100 µM (inactive)	> 100 µM (inactive)	> 100 µM (inactive)	> 100 µM (inactive)	> 100 µM (inactive)	> 100 µM (inactive)	> 100 µM (inactive)	> 100 µM (inactive)	> 100 µM (inactive)	> 100 µM (inactive)	> 100 µM (inactive)	> 100 µM (inactive)	> 100 µM (inactive)	> 100 µM (inactive)	> 100 µM (inactive)	> 100 µM (inactive)	> 100 µM (inactive)	> 100 µM (inactive)
O=C(OCCOCBr)c1ccccc1	> 100 µM (inactive)	> 100 µM (inactive)	> 100 µM (inactive)	> 100 µM (inactive)	> 100 µM (inactive)	> 100 µM (inactive)	> 100 µM (inactive)	> 100 µM (inactive)	> 100 µM (inactive)	> 100 µM (inactive)	> 100 µM (inactive)	> 100 µM (inactive)	> 100 µM (inactive)	> 100 µM (inactive)	> 100 µM (inactive)	> 100 µM (inactive)	> 100 µM (inactive)	> 100 µM (inactive)
NCCn1cnc2nc(NC(=O)c3ccccc3)[nH]c(=O)c21	> 100 µM (inactive)	> 100 µM (inactive)	> 100 µM (inactive)	> 100 µM (inactive)	> 100 µM (inactive)	> 100 µM (inactive)	> 100 µM (inactive)	> 100 µM (inactive)	> 100 µM (inactive)	–	> 100 µM (inactive)	> 100 µM (inactive)	> 100 µM (inactive)	–	> 100 µM (inactive)	> 100 µM (inactive)	> 100 µM (inactive)	> 100 µM (inactive)
O=c1c2c(nc3n1CCC3)sc1c(O)c(Br)ccc12	24.1 µM (inactive)	17.1 µM (inactive)	16.4 µM (inactive)	10.5 µM (inactive)	13 µM (inactive)	20.7 µM (inactive)	27 µM (inactive)	12.5 µM (inactive)	20.7 µM (inactive)	> 100 µM (inactive)	16.4 µM (inactive)	19.1 µM (inactive)	16.6 µM (inactive)	17.4 µM (inactive)	19.1 µM (inactive)	15.5 µM (inactive)	15.4 µM (inactive)	15.2 µM (inactive)
CCOC(=O)c1oc2c(OC)cc(Cl)c3c2c1CCC3	38.3 µM (inactive)	> 100 µM (inactive)	58.3 µM (inactive)	69.8 µM (inactive)	> 100 µM (inactive)	> 100 µM (inactive)	> 100 µM (inactive)	> 100 µM (inactive)	> 100 µM (inactive)	> 100 µM (inactive)	> 100 µM (inactive)	27.4 µM (inactive)	> 100 µM (inactive)	> 100 µM (inactive)	13.6 µM (inactive)	> 100 µM (inactive)	59.8 µM (inactive)	44.3 µM (inactive)
COc1ccc2c(c1OCC(=O)O)C(=O)C(CCC(=O)O)CC2 (stereo not drawn)	> 100 µM (inactive)	> 100 µM (inactive)	> 100 µM (inactive)	> 100 µM (inactive)	> 100 µM (inactive)	–	> 100 µM (inactive)	> 100 µM (inactive)	–	> 100 µM (inactive)	> 100 µM (inactive)	> 10 µM (inactive)	> 100 µM (inactive)	> 100 µM (inactive)	> 100 µM (inactive)	> 100 µM (inactive)	> 100 µM (inactive)	> 100 µM (inactive)
O=[N+]([O-])c1cc(I)cc(/C=N/NS(=O)(=O)c2ccc(Cl)cc2)c1O	20.3 µM (inactive)	22.1 µM (inactive)	27.7 µM (inactive)	22.9 µM (inactive)	19.8 µM (inactive)	23.5 µM (inactive)	16.3 µM (inactive)	27.6 µM (inactive)	25 µM (inactive)	25.2 µM (inactive)	19.9 µM (inactive)	30.8 µM (inactive)	24.4 µM (inactive)	26.1 µM (inactive)	19.1 µM (inactive)	23 µM (inactive)	35.8 µM (inactive)	21.2 µM (inactive)
CCC(O)C1Cc2c(C)cc3c(c2O1)C(=O)c1ccccc1C3=O (stereo not drawn)	31.5 µM (inactive)	29.6 µM (inactive)	49.2 µM (inactive)	18 µM (inactive)	27.7 µM (inactive)	44.4 µM (inactive)	33.3 µM (inactive)	52 µM (inactive)	72.3 µM (inactive)	40.1 µM (inactive)	27.3 µM (inactive)	85.3 µM (inactive)	69 µM (inactive)	28.8 µM (inactive)	29.4 µM (inactive)	–	36 µM (inactive)	40.6 µM (inactive)
Cc1nn(C)c(=S)n(C)c1=O	1 µM (active)	4.1 µM (inactive)	0.571 µM (active)	3.22 µM (inactive)	1.79 µM (inactive)	0.733 µM (active)	0.483 µM (active)	1.79 µM (inactive)	2.26 µM (inactive)	0.773 µM (active)	0.394 µM (active)	4.69 µM (inactive)	1.05 µM (active)	0.757 µM (active)	4.19 µM (inactive)	0.83 µM (active)	0.439 µM (active)	0.416 µM (active)
COc1cccc(NC(=O)CSc2nnc(-c3ccc(/N=C\c4ccc(Cl)cc4)cc3)o2)c1	–	–	18.3 µM (inactive)	–	20.2 µM (inactive)	19 µM (inactive)	19.8 µM (inactive)	20.4 µM (inactive)	–	19.4 µM (inactive)	20.1 µM (inactive)	30.6 µM (inactive)	> 10 µM (inactive)	14.3 µM (inactive)	–	–	27.2 µM (inactive)	17.2 µM (inactive)
O=C(O)CCC1(Br)CCCCC(Br)C1=O (stereo not drawn)	> 100 µM (inactive)	> 100 µM (inactive)	> 100 µM (inactive)	> 100 µM (inactive)	–	77.4 µM (inactive)	> 100 µM (inactive)	> 100 µM (inactive)	> 100 µM (inactive)	> 100 µM (inactive)	> 100 µM (inactive)	> 100 µM (inactive)	> 100 µM (inactive)	> 100 µM (inactive)	> 100 µM (inactive)	> 100 µM (inactive)	> 100 µM (inactive)	> 100 µM (inactive)
CC1(c2cccc3ccccc23)OC(=O)c2ccccc21 (stereo not drawn)	19.2 µM (inactive)	15.7 µM (inactive)	27 µM (inactive)	21.5 µM (inactive)	19.3 µM (inactive)	21.3 µM (inactive)	16 µM (inactive)	21 µM (inactive)	57.1 µM (inactive)	18.2 µM (inactive)	21.1 µM (inactive)	70.6 µM (inactive)	22.2 µM (inactive)	12 µM (inactive)	23.5 µM (inactive)	14.6 µM (inactive)	16.7 µM (inactive)	16.9 µM (inactive)
O=c1[nH]n2c(=O)cc[nH]c2c1-c1nnns1	> 100 µM (inactive)	> 100 µM (inactive)	> 100 µM (inactive)	> 100 µM (inactive)	> 100 µM (inactive)	> 100 µM (inactive)	> 100 µM (inactive)	> 100 µM (inactive)	> 100 µM (inactive)	> 100 µM (inactive)	> 100 µM (inactive)	> 100 µM (inactive)	–	–	> 100 µM (inactive)	> 100 µM (inactive)	> 100 µM (inactive)	> 100 µM (inactive)
Cc1ccc(/C=N/C23CC4CC(CC(C4)C2)C3)cc1	> 100 µM (inactive)	> 100 µM (inactive)	> 100 µM (inactive)	> 100 µM (inactive)	> 100 µM (inactive)	85.7 µM (inactive)	> 100 µM (inactive)	> 100 µM (inactive)	> 100 µM (inactive)	> 100 µM (inactive)	> 100 µM (inactive)	> 100 µM (inactive)	> 100 µM (inactive)	–	> 100 µM (inactive)	> 100 µM (inactive)	> 100 µM (inactive)	> 100 µM (inactive)
C[C@]12Cc3conc3C(O)=C1CC[C@@H]1C2CC[C@@]2(C)C1CC[C@@H]2O (stereo partly drawn)	26 µM (inactive)	–	12.1 µM (inactive)	9.12 µM (inactive)	4.5 µM (inactive)	0.634 µM (active)	18.1 µM (inactive)	15.5 µM (inactive)	50.2 µM (inactive)	12.4 µM (inactive)	12.6 µM (inactive)	24.3 µM (inactive)	21.3 µM (inactive)	4.99 µM (inactive)	6.22 µM (inactive)	15.8 µM (inactive)	17.9 µM (inactive)	–
